Results from patent US20220306989A1, “CELL THERAPY METHODS” (Universität Basel, priority 2019, published 2022).
Numbered stars: 1 amine (or outer) side, 2 acyl side, 3 side chain; on linkers, the order of the positions; unused ones are H or OH. Bridge positions count the residues as written; N and C are the ends. Square brackets hold non-standard residues; d marks the D form. Peptide text beside a SMILES is read from it. I, II: the chains in the order shown. Actinocin(9to1) = Cc1c2oc3c(C)ccc(C(=O)[*:1])c3nc-2c(C(=O)[*:2])c(N)c1=O; NMeV = CN[C@H](C(=O)O)C(C)C; Sar = CNCC(=O)O

Columns and labels:
NV and CE NK cells [1] = test: Transferrin uptake assay (Tf-488); format: cell-based, human; conditions: IL-12/IL-18 + 2-DG treated NK cells
Experimental: (§1) Blood samples were obtained from healthy donors after written informed consent. Peripheral blood mononuclear cells were isolated by standard density-gradient centrifugation protocols (Lymphoprep; Fresenius Kabi). NK cells were negatively selected using EasySep negative NK cell isolation kit (Stemcell). Human NK cells were maintained in RPMI-1640 medium (Invitrogen) supplemented with 10% heat-inactivated human AB serum, 50 U/ml penicillin (Invitrogen) and 50 μg/ml streptomycin (Invitrogen) (R10AB). To generate CE NK cells, isolated NK cells were primed in R10AB containing IL-12 (10 ng/ml, R&D systems), IL-15 (1 ng/ml, PeproTech) and IL-18 (50 ng/ml, R&D systems) over-night. The next day cells were washed twice with PBS and maintained in R10AB containing IL-15 (1 ng/ml) until stimulation. Every 2-3 days 50% of the medium was replaced with fresh IL-IS (1 ng/ml). After 7 days cells were stimulated in R10AB containing IL-12 (10 ng/ml), IL-15 (1 ng/ml) and IL-18 (50 ng/ml) or with K562 leukemia targets (effector: target ratio, 5:1) for 6 hours. […]
NK cells were seeded in U-bottom 96-well plates (2×10^5 cells/well). […] Cells were resuspended in FACS buffer and analyzed by flow cytometry. […] Data were analyzed with Flowjo®_V10.5 (Tree Star, USA).

NV and CE NK cells [2] = test: Quantitative real-time PCR of IFNG and TFRC mRNA in NK cells; format: cell-based, human
Experimental: as §1, with “ng/ml).” for “ng/ml). After 7 days cells were stimulated in R10AB containing IL-12 (10 ng/ml), IL-15 (1 ng/ml) and IL-18 (50 ng/ml) or with K562 leukemia targets (effector: target ratio, 5:1) for 6 hours.”
RNA was isolated from NK cells using Trizol (Thermo Fisher Scientific) and chloroform (Sigma-Aldrich) according to manufacturer's protocol, then purified with RNeasy RNA purification mini kit (QIAGEN, Germany). RNA concentration was determined using the NanoDrop 2000C (Thermo Fisher Scientific). […] Quantitative PCR for IFNG, TFRC and 18S mRNA was done in triplicate using commercially designed primers from Life Technologies (Hs00989291_m1, Hs00951083_m1, Hs03003631_g1). […]

NV and CE NK cells [3] = test: IFN-γ measurement in human NK cells (bead-based immunoassay of supernatants); format: cell-based; conditions: IL-12/IL-18 stimulation 6 hours, 2-DG 10 mM pre-incubated 30 min
Experimental: as §1
NK cells were seeded in U-bottom 96 well plates (2×10^5 cells/well) using R10AB. […] Cell supernatants were harvested after stimulation and IFN-γ was measured using a human Th1 cytokine bead-based immunoassay (Legendplex, Biolegend) according to manufacturer's protocol.

NV and CE NK cells [4] = test: Flow cytometry of surface CD71 / CD69 on human NK cells; format: cell-based
Experimental: as §1
For surface staining NK cells were stained for 30 min at 4° C. with saturating concentrations of antibodies. […] Data were analyzed with Flowjo®_V10.5 (Tree Star, USA).

NV and CE NK cells [5] = format: cell-based
Experimental: (§2) Blood samples were obtained from healthy donors after written informed consent. Peripheral blood mononuclear cells were isolated by standard density-gradient centrifugation protocols (Lymphoprep; Fresenius Kabi). NK cells were negatively selected using EasySep negative NK cell isolation kit (Stemcell). Human NK cells were maintained in RPMI-1640 medium (Invitrogen) supplemented with 10% heat-inactivated human AB serum, 50 U/ml penicillin (Invitrogen) and 50 μg/ml streptomycin (Invitrogen) (R10AB). To generate CE NK cells, isolated NK cells were primed in R10AB containing IL-12 (10 ng/ml, R&D systems), IL-15 (1 ng/ml, PeproTech) and IL-18 (50 ng/ml, R&D systems) over-night. The next day cells were washed twice with PBS and maintained in R10AB containing IL-15 (1 ng/ml) until stimulation. Every 2-3 days 50% of the medium was replaced with fresh IL-IS (1 ng/ml). After 7 days cells were stimulated in R10AB containing IL-12 (10 ng/ml), IL-15 (1 ng/ml) and IL-18 (50 ng/ml) or with K562 leukemia targets (effector: target ratio, 5:1) for 6 hours. When indicated, cells were pre-incubated with 2-deoxy-D-glucose (10 mM, Sigma-Aldrich), Actinomycin D (1 and 10 μM, Sigma-Aldrich), Cycloheximide (10 and 100 μg/ml, Sigma-Aldrich), 2,2′-Bipyridyl (1, 10, 50 and 100 μM, Sigma-Aldrich) or 6-aminonicotinamide (50 μM, Sigma-Aldrich) for 30 min and then stimulated in R10AB containing IL-12 (10 ng/ml), IL-1S (1 ng/ml) and IL-18 (50 ng/ml) for 6 hours.
For cell proliferation assays, NK cells were loaded prior to activation with the cell-proliferation dye CFSE (1 μM, Molecular probes, USA) and seeded in 96-well plates. Cells were washed twice and maintained in R10AB with IL-15 (1 ng/ml), when indicated in the presence of inhibitors. A fixable live-dead cell stain (Fixable Viability Dye, eBioscience or Zombie Aqua, Biolegend) was used to exclude dead cells prior to sample acquisition. CFSE dilution was analyzed 65 hours post-stimulation by flow cytometry. Samples were acquired using a BD AccuriC6 or a CytoFLEX flow cytometer (Beckman Coulter). Data were analyzed with Flowjo®_V 10.5 (Tree Star, USA).

NV and CE NK cells [6] = test: Immunoblot of total CD71, IRP1, IRP2 in human NK cells; format: cell-based; conditions: IL-12/IL-18 + ActD 1 and 10 μM or CHX 10 and 100 μg/ml
Experimental: as §2
Protein concentrations were determined by BCA protein assay kit (Thermo Fisher Scientific). Total cell lysates were separated using 4%-15% Mini Protean TGX Gel (Bio-Rad, Hercules Calif., USA), and transferred to nitrocellulose membranes using Trans-Blot Turbo Transfer (Bio-Rad, Hercules Calif., USA). […] Blots were stained with appropriate secondary antibodies and the odyssey imaging system (LICOR, Lincoln Nebr., USA) was used for visualization, and the ImageJ software (1.48v) for quantification.

## O=CC[C@@H](O)[C@H](O)[C@H](O)CO [2-DG, 2-deoxy-d-glucose]
NV and CE NK cells [1]
  transferrin uptake (Tf-488): reduced transferrin uptake
NV and CE NK cells [2]; IL-12/IL-18 + 2-DG
  TFRC mRNA abundance: similarly reduced
NV and CE NK cells [2]; IL-12/IL-18 stimulation 6 hours, 2-DG 10 mM pre-incubated 30 min
  IFNG mRNA abundance: similarly reduced
NV and CE NK cells [3]
  IFN-γ secretion: similarly reduced
NV and CE NK cells [4]; IL-12/IL-18 + 2-DG, NV and CE NK cells
  Cell surface expression of CD71: followed the same pattern

## NC(=O)c1ccc(N)nc1 [6AN, 6-aminonicotinamide]
NV and CE NK cells [5]; IL-12/IL-18 + 6AN 50 μM, NV and CE NK cells
  expansion / proliferation of cytokine-stimulated NK cells (CFSE dilution): prevented expansion of cytokine-stimulated NK cells

## Cc1c2oc3c(C)ccc(C(=O)N[C@@H]4C(=O)N[C@H](C(C)C)C(=O)N5CCC[C@H]5C(=O)N(C)CC(=O)N(C)[C@@H](C(C)C)C(=O)O[C@@H]4C)c3nc-2c(C(=O)N[C@@H]2C(=O)N[C@H](C(C)C)C(=O)N3CCC[C@H]3C(=O)N(C)CC(=O)N(C)[C@@H](C(C)C)C(=O)O[C@@H]2C)c(N)c1=O [Actinomcyin D, Actinomycin D] (I: T[dV]P[Sar][NMeV] / II: T[dV]P[Sar][NMeV]; ester I:1-I:C, II:1-II:C; linker I:N-II:N via Actinocin(9to1))
NV and CE NK cells [6]
  stimulation-induced upregulation of CD71 (total CD71, Western blot): entirely prevented stimulation-induced upregulation of CD71
NV and CE NK cells [6]; listed as actinomycin
  stimulation-induced upregulation of CD71 (total CD71, Western blot): prevented stimulation-induced upregulation of CD71

## c1ccc(-c2ccccn2)nc1 [BIP, 2,2′-bipyridyl]
NV and CE NK cells [4]; IL-12/IL-18 + BIP 100 μM
  NK cell activation as assessed by CD69 expression: no effect on NK cell activation
NV and CE NK cells [5]
  cell viability: minimal effects on cell viability
NV and CE NK cells [5]; IL-12/IL-18 + BIP 1, 10 and 50 μM, NV and CE NK cells, 65 hours post-stimulation
  NK cell proliferation (CFSE dilution): inhibited NK cell proliferation in a dose-dependent manner

## C[C@@H]1C[C@@H]([C@H](O)CC2CC(=O)NC(=O)C2)C(=O)[C@@H](C)C1 [cycloheximide]
NV and CE NK cells [6]
  stimulation-induced upregulation of CD71 (total CD71, Western blot): entirely prevented stimulation-induced upregulation of CD71
